From patent publication US11382328B2, “Rapid drug discovery methods for pathogen inactivation” (priority 2019, dated 2022)

Tested on: E. coli strain W3110
Experiment: Synergy assays: Biolog chemical sensitivity panels with Group IB metal, coefficient of drug interaction (CDI) from relative growth
Type: cell-based
Settings: for CDI (coefficient of drug interaction), copper mixed with biocide: Copper (mM) section; for CDI (coefficient of drug interaction), gold + biocide: Gold (μM)
[1] = 1st of 3 copper concentrations (value not shown), 4th of four biocide concentrations
[2] = 2nd of 3 copper concentrations (value not shown), 3rd of four biocide concentrations
[3] = 2nd of 3 copper concentrations (value not shown), 4th of four biocide concentrations
[4] = 3rd of 3 copper concentrations (value not shown), 4th of four biocide concentrations
[5] = Gold section of Table 5, first of three gold concentrations (μM, value not given), biocide concentration 4 of 4
[6] = Gold section of Table 5, second of three gold concentrations (μM, value not given), biocide concentration 4 of 4
[7] = Gold section of Table 5, third of three gold concentrations (μM, value not given), biocide concentration 4 of 4
[8] = Silver 0.5 μM, biocide concentration 1 of 4
[9] = Silver 0.5 μM, biocide concentration 2 of 4
[10] = Silver 0.5 μM, biocide concentration 3 of 4
[11] = Silver 0.5 μM, biocide concentration 4 of 4
[12] = Silver 1.0 μM, biocide concentration 1 of 4
[13] = Silver 1.0 μM, biocide concentration 2 of 4
[14] = Silver 1.0 μM, biocide concentration 3 of 4
[15] = Silver 1.0 μM, biocide concentration 4 of 4
[16] = Silver 5.0 μM, biocide concentration 1 of 4
[17] = Silver 5.0 μM, biocide concentration 2 of 4
[18] = Silver 5.0 μM, biocide concentration 3 of 4
[19] = Silver 5.0 μM, biocide concentration 4 of 4
[20] = Copper (mM), 1st of 3 copper concentrations (head line not shown), biocide concentration 2 of 4, E. coli
[21] = Copper (mM), 1st of 3 copper concentrations (head line not shown), biocide concentration 3 of 4, E. coli
[22] = Copper (mM), 1st of 3 copper concentrations (head line not shown), biocide concentration 4 of 4, E. coli
[23] = Copper (mM), 2nd of 3 copper concentrations (head line not shown), biocide concentration 1 of 4, E. coli
[24] = Copper (mM), 2nd of 3 copper concentrations (head line not shown), biocide concentration 2 of 4, E. coli
[25] = Copper (mM), 2nd of 3 copper concentrations (head line not shown), biocide concentration 3 of 4, E. coli
[26] = Copper (mM), 2nd of 3 copper concentrations (head line not shown), biocide concentration 4 of 4, E. coli
[27] = Copper (mM), 3rd of 3 copper concentrations (head line not shown), biocide concentration 1 of 4, E. coli
[28] = Copper (mM), 3rd of 3 copper concentrations (head line not shown), biocide concentration 3 of 4, E. coli
[29] = Copper (mM), 3rd of 3 copper concentrations (head line not shown), biocide concentration 4 of 4, E. coli
[30] = first of 3 gold concentrations, biocide concentration 1 of 4
[31] = first of 3 gold concentrations, biocide concentration 2 of 4
[32] = first of 3 gold concentrations, biocide concentration 3 of 4
[33] = first of 3 gold concentrations, biocide concentration 4 of 4
[34] = second of 3 gold concentrations, biocide concentration 2 of 4
[35] = second of 3 gold concentrations, biocide concentration 3 of 4
[36] = second of 3 gold concentrations, biocide concentration 4 of 4
[37] = third of 3 gold concentrations, biocide concentration 1 of 4
[38] = third of 3 gold concentrations, biocide concentration 2 of 4
[39] = third of 3 gold concentrations, biocide concentration 3 of 4
[40] = third of 3 gold concentrations, biocide concentration 4 of 4
[41] = Silver 0.5 μM, 4th of four biocide concentrations, E. coli
[42] = Silver 1.0 μM, 4th of four biocide concentrations, E. coli
[43] = Silver 5.0 μM, 4th of four biocide concentrations, E. coli

In the case of `CN[C@@H]1[C@@H](O)[C@@H](O[C@@H]2[C@@H](O)[C@H](O[C@H]3O[C@H]([C@@H](C)O)[C@@H](O)[C@H](O)[C@H]3N)[C@@H](N)C[C@H]2N)OC[C@]1(C)O` [geneticin (G418)], the “CDI (coefficient of drug interaction), copper mixed with biocide” value (“CDI … with biocide” below) (1st of 3 copper concentrations (value not shown), 1st of four biocide concentrations) is reported as 0.97, the “CDI … with biocide” value (1st of 3 copper concentrations (value not shown), 2nd of four biocide concentrations) is reported as 0.87 and the “CDI … with biocide” value (1st of 3 copper concentrations (value not shown), 3rd of four biocide concentrations) is reported as 0.86. For the same compound, the “CDI … with biocide” value [1] was 0.88, the “CDI … with biocide” value (2nd of 3 copper concentrations (value not shown), 1st of four biocide concentrations) was 0.73 and the “CDI … with biocide” value (2nd of 3 copper concentrations (value not shown), 2nd of four biocide concentrations) was 0.71. For the same compound, the “CDI … with biocide” value [2] was 0.71, the “CDI … with biocide” value [3] was “Tox” and the “CDI … with biocide” value (3rd of 3 copper concentrations (value not shown), 1st of four biocide concentrations) was 0.54. For the same compound, the “CDI … with biocide” value (3rd of 3 copper concentrations (value not shown), 2nd of four biocide concentrations) was 0.50, the “CDI … with biocide” value (3rd of 3 copper concentrations (value not shown), 3rd of four biocide concentrations) was 0.48 and the “CDI … with biocide” value [4] was 0.44. The “CDI (coefficient of drug interaction)” value (Gold section of Table 5, first of three gold concentrations (μM, value not given), biocide concentration 1 of 4) was 1.08, the “CDI (coefficient of drug interaction)” value (Gold section of Table 5, first of three gold concentrations (μM, value not given), biocide concentration 2 of 4) was 1.00 and the “CDI (coefficient of drug interaction)” value (Gold section of Table 5, first of three gold concentrations (μM, value not given), biocide concentration 3 of 4) was 1.01. The “CDI (coefficient of drug interaction)” value [5] was 0.95, the “CDI (coefficient of drug interaction)” value (Gold section of Table 5, second of three gold concentrations (μM, value not given), biocide concentration 1 of 4) was 1.05 and the “CDI (coefficient of drug interaction)” value (Gold section of Table 5, second of three gold concentrations (μM, value not given), biocide concentration 2 of 4) was 1.03. The “CDI (coefficient of drug interaction)” value (Gold section of Table 5, second of three gold concentrations (μM, value not given), biocide concentration 3 of 4) was 1.00, the “CDI (coefficient of drug interaction)” value [6] was 1.02 and the “CDI (coefficient of drug interaction)” value (Gold section of Table 5, third of three gold concentrations (μM, value not given), biocide concentration 1 of 4) was 1.05. For the same compound, the “CDI (coefficient of drug interaction)” value (Gold section of Table 5, third of three gold concentrations (μM, value not given), biocide concentration 2 of 4) was 1.04, the “CDI (coefficient of drug interaction)” value (Gold section of Table 5, third of three gold concentrations (μM, value not given), biocide concentration 3 of 4) was 1.05 and the “CDI (coefficient of drug interaction)” value [7] was 1.11. It also gave a CDI [8] of 1.04, a CDI [9] of 0.96 and a CDI [10] of 0.76. The CDI [11] was “Tox”, the CDI [12] was 0.94 and the CDI [13] was 0.82. The CDI [14] was 0.31, the CDI [15] was “Tox” and the CDI [16] was 0.48. The CDI [17] was 0.49, the CDI [18] was 0.23 and the CDI [19] was “Tox”.
In the case of `CSCCC(N)C(=O)NO` (racemic) [D,L-methionine hydroxamate], the “CDI (coefficient of drug interaction)” value [20] is reported as 1.19, the “CDI (coefficient of drug interaction)” value [21] is reported as 1.02 and the “CDI (coefficient of drug interaction)” value [22] is reported as 0.91. The “CDI (coefficient of drug interaction)” value [23] was 0.84, the “CDI (coefficient of drug interaction)” value [24] was 0.95 and the “CDI (coefficient of drug interaction)” value [25] was 2.26. For the same compound, the “CDI (coefficient of drug interaction)” value [26] was 3.51, the “CDI (coefficient of drug interaction)” value [27] was 0.98 and the “CDI (coefficient of drug interaction)” value [28] was 1.51. For the same compound, the “CDI (coefficient of drug interaction)” value [29] was 1.54, the “CDI (coefficient of drug interaction), gold + biocide” value (“CDI … gold + biocide” below) [30] was 1.08 and the “CDI … gold + biocide” value [31] was 1.10. For the same compound, the “CDI … gold + biocide” value [32] was 1.06, the “CDI … gold + biocide” value [33] was “Tox” and the “CDI … gold + biocide” value (second of 3 gold concentrations, biocide concentration 1 of 4) was 1.03. The “CDI … gold + biocide” value [34] was 1.04, the “CDI … gold + biocide” value [35] was 1.08 and the “CDI … gold + biocide” value [36] was “Tox”. The “CDI … gold + biocide” value [37] was 0.92, the “CDI … gold + biocide” value [38] was 0.96 and the “CDI … gold + biocide” value [39] was 0.93. The “CDI … gold + biocide” value [40] was “Tox”, the CDI [8] was 0.88 and the CDI [9] was 1.04. The CDI [10] was “Tox”, the CDI [11] was “Tox” and the CDI [12] was 1.04. The CDI [13] was 0.99, the CDI [14] was “Tox” and the CDI [15] was “Tox”. For the same compound, the CDI [16] was 0.71, the CDI [17] was 0.42 and the CDI [18] was “Tox”. For the same compound, the CDI [19] was “Tox”.
`CCCCCCCCCCCCNC(=N)N` [dodine] was tested, and the “CDI … with biocide” value [1] was “Tox”, the “CDI … with biocide” value [2] was “Tox” and the “CDI … with biocide” value [3] was “Tox”. For the same compound, the “CDI … with biocide” value [4] was “Tox”, the “CDI (coefficient of drug interaction)” value [5] was “Tox” and the “CDI (coefficient of drug interaction)” value [6] was “Tox”. The “CDI (coefficient of drug interaction)” value [7] was “Tox”, the “CDI (coefficient of drug interaction), silver + biocide” value (from here on “CDI … silver + biocide”) (Silver 0.5 μM, 3rd of four biocide concentrations, E. coli) was “Tox” and the “CDI … silver + biocide” value [41] was “Tox”. For the same compound, the “CDI … silver + biocide” value (Silver 1.0 μM, 3rd of four biocide concentrations, E. coli) was “Tox”, the “CDI … silver + biocide” value [42] was “Tox” and the “CDI … silver + biocide” value (Silver 5.0 μM, 3rd of four biocide concentrations, E. coli) was “Tox”. The “CDI … silver + biocide” value [43] was “Tox”.
`CC1=C(C(=O)Nc2ccccc2)S(=O)(=O)CCO1` [Oxycarboxin] was tested, and the “CDI (coefficient of drug interaction)” value [21] was “Tox”, the “CDI (coefficient of drug interaction)” value [22] was “Tox” and the “CDI (coefficient of drug interaction)” value [25] was “Tox”. The “CDI (coefficient of drug interaction)” value [26] was “Tox”, the “CDI (coefficient of drug interaction)” value [28] was “Tox” and the “CDI (coefficient of drug interaction)” value [29] was “Tox”. The “CDI … gold + biocide” value [31] was “Tox”, the “CDI … gold + biocide” value [32] was “Tox” and the “CDI … gold + biocide” value [33] was “Tox”. For the same compound, the “CDI … gold + biocide” value [34] was “Tox”, the “CDI … gold + biocide” value [35] was “Tox” and the “CDI … gold + biocide” value [36] was “Tox”. For the same compound, the “CDI … gold + biocide” value [38] was “Tox”, the “CDI … gold + biocide” value [39] was “Tox” and the “CDI … gold + biocide” value [40] was “Tox”. For the same compound, the CDI [9] was “Tox”, the CDI [10] was “Tox” and the CDI [11] was “Tox”. For the same compound, the CDI [13] was “Tox”, the CDI [14] was “Tox” and the CDI [15] was “Tox”. For the same compound, the CDI [17] was “Tox”, the CDI [18] was “Tox” and the CDI [19] was “Tox”.
For penimepicycline, the “CDI (coefficient of drug interaction)” value (Copper (mM), 1st of 3 copper concentrations (head line not shown), biocide concentration 1 of 4, E. coli) was 0.91, the “CDI (coefficient of drug interaction)” value [20] was 1.07 and the “CDI (coefficient of drug interaction)” value [21] was “Tox”. The “CDI (coefficient of drug interaction)” value [22] was “Tox”, the “CDI (coefficient of drug interaction)” value [23] was 0.70 and the “CDI (coefficient of drug interaction)” value [24] was 0.87. For the same compound, the “CDI (coefficient of drug interaction)” value [25] was “Tox”, the “CDI (coefficient of drug interaction)” value [26] was “Tox” and the “CDI (coefficient of drug interaction)” value [27] was 0.51. For the same compound, the “CDI (coefficient of drug interaction)” value (Copper (mM), 3rd of 3 copper concentrations (head line not shown), biocide concentration 2 of 4, E. coli) was 0.64, the “CDI (coefficient of drug interaction)” value [28] was “Tox” and the “CDI (coefficient of drug interaction)” value [29] was “Tox”. For the same compound, the “CDI … gold + biocide” value [30] was 1.07, the “CDI … gold + biocide” value [31] was 1.12 and the “CDI … gold + biocide” value [32] was “Tox”. For the same compound, the “CDI … gold + biocide” value [33] was “Tox”, the “CDI … gold + biocide” value [35] was “Tox” and the “CDI … gold + biocide” value [36] was “Tox”. The “CDI … gold + biocide” value [37] was 0.90, the “CDI … gold + biocide” value [38] was 0.80 and the “CDI … gold + biocide” value [39] was “Tox”. The “CDI … gold + biocide” value [40] was “Tox”, the CDI [9] was 1.10 and the CDI [10] was “Tox”. The CDI [11] was “Tox”, the CDI [12] was 0.91 and the CDI [13] was 0.91. The CDI [14] was “Tox”, the CDI [15] was “Tox” and the CDI [16] was 0.49. The CDI [17] was 0.34, the CDI [18] was “Tox” and the CDI [19] was “Tox”.
In the case of `Nc1c2ccccc2nc2ccccc12` [9-aminoacridine], the “CDI … with biocide” value [3] is reported as “Tox”, the “CDI … silver + biocide” value [41] is reported as “Tox” and the “CDI … silver + biocide” value [42] is reported as “Tox”. The “CDI … silver + biocide” value [43] was “Tox”.
